# According to ChEMBL document CHEMBL1136493, “Synthesis and anti-HIV properties of new water-soluble bis-functionalized[60]fullerene derivatives” (Bioorg Med Chem Lett, 2003):
# Tests used:
# Settings in all cases: Homo sapiens
# CCRF-CEM [1] = test: Effective concentration required to inhibit HIV-induced (HIV-1) cytopathicity by 50% in CEM cell cultures; assay type: functional, cell-based
# CCRF-CEM [2] = test: Effective concentration required to inhibit HIV-induced (HIV-2) cytopathicity by 50% in CEM cell cultures; assay type: functional, cell-based
# CCRF-CEM [3] = test: Cytostatic concentration required to inhibit CEM cell proliferation by 50%; assay type: functional
EC50 (CCRF-CEM [1]),EC50 (CCRF-CEM [2]),SMILES,CC50 (CCRF-CEM [3])
0.96 µM,> 4 µM,C[N+]1(CCOCCOCCN)CC23C4=c5c6c7c8c9c%10c%11c%12c%13c%14c%15c%16c%17c%18c%19c%20c%21c%22c%23c%24c(c2c%22c2c%22c%25c%26c(c5c(c6%10)c5c%11c6c%13c(c%14%18)c%10c%19c(c%212)c%25c%10c6c%265)C%223C1)C4C7C1=C%24C(=C%16C2(C[N+](C)(CCOCCOCCN)CC182)C%15C9%12)C%23C%17%20 (stereo not given),3.02 µM
> 4 µM,> 4 µM,COCCOCCOCCOC(=O)C1(C(=O)OCCOCCOCCOC)C23C4=c5c6c7c8c9c%10c%11c%12c%13c9c9c%14c%15c%16c%17c%18c%19c%20c%21c%22c%23c%24c(c-%11c(c2c%24c2c%11c%24c%25c(c5c5c6c(c8%14)c%15c6c%17c(c%25c56)c5c%18c%21c(c%232)c%245)C%1113)C4C%107)C%12C%22C%201CN(CCOCCOCCN)CC%131C9C%19%16 (stereo not given),
0.4 µM,> 4 µM,C[N+]1(CCOCCOCCN)CC23C4=c5c6c7c8c9c%10c%11c%12c%13c9c9c%14c%15c%16c%17c%18c%19c%20c%21c%22c%23c%24c(c-%11c(c2c%24c2c%11c%24c%25c(c5c5c6c(c8%14)c%15c6c%17c(c%25c56)c5c%18c%21c(c%232)c%245)C%113C1)C4C%107)C%12C%22C%201C[N+](C)(CCOCCOCCN)CC%131C9C%19%16 (stereo not given),4.79 µM
> 4 µM,> 4 µM,NCCOCCOCCN1CC23C4=c5c6c7c8c9c%10c%11c%12c%13c9c9c%14c%15c%16c%17c%18c%19c%20c%21c%22c%23c%24c(c-%11c(c2c%24c2c%11c%24c%25c(c5c5c6c(c8%14)c%15c6c%17c(c%25c56)c5c%18c%21c(c%232)c%245)C%113C1)C4C%107)C%12C%22C%201CN(CCOCCOCCN)CC%131C9C%19%16 (stereo not given),7.2 µM
> 4 µM,> 4 µM,NCCOCCOCCN1CC23C4=c5c6c7c8c9c%10c%11c%12c%13c%14c%15c%16c%17c%18c%19c%20c%21c%22c%23c%24c(c2c%22c2c%22c%25c%26c(c5c(c6%10)c5c%11c6c%13c(c%14%18)c%10c%19c(c%212)c%25c%10c6c%265)C%223C1)C4C7C1=C%24C(=C%16C2(CN(CCOCCOCCN)CC182)C%15C9%12)C%23C%17%20 (stereo not given),7.63 µM
1.6 µM,> 4 µM,C[N+]1(CCOCCOCCN)CC23C4=C5c6c7c8c9c(c%10c%11c%12c%13c%14c%15c%16c%17c%18c%19c%20c%21c%22c%23c(c6c6c%22c%22c%20c(c%15%19)c%13c(c%129)c%22c86)C5C5C6c8c9c(c-%17c%12c8C5C%23C%21C%12%18)C5c8c-9c(c2c-%10c8C%112C[N+](C)(CCOCCOCCN)CC%142C%165)C46)C73C1 (stereo not given),6.59 µM
> 4 µM,> 4 µM,C[N+]1(CCOCCOCCN)CC23C4=c5c6c7c8c9c%10c%11c%12c%13c%14c%15c%16c%17c%18c%19c%20c%21c%22c%23c%24c(c2c%22c2c%22c%25c%26c(c5c(c6%10)c5c%11c6c%13c(c%14%18)c%10c%19c(c%212)c%25c%10c6c%265)C%223C1)C4C7c1c-%24c(c-%16c(c1-8)C%15C9%12)C%23C%17%20 (stereo not given),44.3 µM
2.01 µM,> 4 µM,O=C(O)CN(CCOCCOCCN1CC23C4=c5c6c7c8c9c%10c%11c%12c%13c9c9c%14c%15c%16c%17c%18c%19c%20c%21c%22c%23c%24c(c-%11c(c2c%24c2c%11c%24c%25c(c5c5c6c(c8%14)c%15c6c%17c(c%25c56)c5c%18c%21c(c%232)c%245)C%113C1)C4C%107)C%12C%22C%201CN(CCOCCOCCN(CC(=O)O)CC(=O)O)CC%131C9C%19%16)CC(=O)O (stereo not given),
> 4 µM,> 4 µM,NCCOCCOCCN1CC23C4=c5c6c7c8c9c%10c%11c%12c%13c%14c%15c%16c%17c%18c%19c%20c%21c%22c(c2c%20c2c%20c%23c%24c(c5c7c5c9c7c%11c(c%12%16)c9c%17c(c%192)c%23c9c7c%245)C%203C1)C4C1C=6C2c3c1c-%22c(c-%14c3C%13C%10C82)C%211CN(CCOCCOCCN)CC%15%181 (stereo not given),7.4 µM
> 4 µM,> 4 µM,NCCOCCOCCN1CC23C4=C5c6c7c8c9c(c%10c%11c%12c%13c%14c%15c%16c%17c%18c%19c%20c%21c%22c%23c(c6c6c%22c%22c%20c(c%15%19)c%13c(c%129)c%22c86)C5C5C6c8c9c(c-%17c%12c8C5C%23C%21C%12%18)C5c8c-9c(c2c-%10c8C%112CN(CCOCCOCCN)CC%142C%165)C46)C73C1 (stereo not given),9.6 µM
> 4 µM,> 4 µM,O=C(O)CN(CCOCCOCCN1CC23C4=C5c6c7c8c9c(c%10c%11c%12c%13c%14c%15c%16c%17c%18c%19c%20c%21c%22c%23c(c6c6c%22c%22c%20c(c%15%19)c%13c(c%129)c%22c86)C5C5C6c8c9c(c-%17c%12c8C5C%23C%21C%12%18)C5c8c-9c(c2c-%10c8C%112CN(CCOCCOCCN(CC(=O)O)CC(=O)O)CC%142C%165)C46)C73C1)CC(=O)O (stereo not given),
2.6 µM,> 4 µM,C[N+]1(CCOCCOCCN)CC23C4=c5c6c7c8c9c%10c%11c%12c%13c%14c%15c%16c%17c%18c%19c%20c%21c%22c(c2c%20c2c%20c%23c%24c(c5c7c5c9c7c%11c(c%12%16)c9c%17c(c%192)c%23c9c7c%245)C%203C1)C4C1C=6C2c3c1c-%22c(c-%14c3C%13C%10C82)C%211C[N+](C)(CCOCCOCCN)CC%15%181 (stereo not given),13.2 µM
> 4 µM,> 4 µM,COCCOCCOCCOC(=O)C1(C(=O)OCCOCCOCCOC)C23C4=C5c6c7c8c9c(c%10c%11c%12c%13c%14c%15c%16c%17c%18c%19c%20c%21c%22c%23c(c6c6c%22c%22c%20c(c%15%19)c%13c(c%129)c%22c86)C5C5C6c8c9c(c-%17c%12c8C5C%23C%21C%12%18)C5c8c-9c(c2c-%10c8C%112CN(CCOCCOCCN)CC%142C%165)C46)C713 (stereo not given),
